Results as given in US4526894A, “Pharmaceutically active 4-hydroxy-3-benzoyl-2-quinolone derivatives” (Nippon Shinyaku Co. Ltd., priority 1982, dated 1985).

Experiments:
[1] = tested on: SRS-A (slow reacting substance of anaphylaxis); assay: Anti-SRS-A action using isolated ileus of guinea pigs
Description: Anti-SRS-As action (An anti-action against slow reacting substance of anaphylaxis).
Hartley strain male guinea pigs (300 to 350 grams body weight) are killed and 1.0 to 1.5 cm of ileus is immeidiately excised from ileocecal parts and is suspended in 10 ml of Tyrode solution (95% O2 -5% CO2 saturation) containing 10^-7 g/ml of atropine and 10^-6 g/ml of pyrilamine. SRS-A (20 units) (the amount of SRS-A showing the same shrinkage as 5 ng of histamine is defined as 1 unit) prepared by using sensitized guinea pig lung is given to cause shrinkage there. Then antagonistic action of test compounds treated five minutes ago against the shrinkage is measured and recorded via isotonic transducer.
Inhibition Ratio of Test Compd (%)=(1-A'/A)×100
in which A' is a height of shrinkage of SRS-A+test compound and A is that of SRS-A.

[2] = tested on: passive cutaneous anaphylaxis (DNP-As antigen) in Wister strain rats; assay: passive cutaneous anaphylaxis (PCA) assay in rats; format: in vivo; settings: 10 mg/kg oral, one hour before antigen; for inhibition in vivo at 10 mg/kg: Rattus norvegicus, po, 1 h, read-out: PCA Inhibition Ratio %
Description: (i) Antiserum abundant in homocytotropic antibody is prepared by the same method as Tada and Okumura did (cf. Journal of Immunology, vol. 106, page 1002, 1976). Thus, 1 mg (calculated as an amount of protein) of DNP-As (2,4-dinitrophenyl-coupled ascaris extract) prepared by methods of Strejan and Campbell (Journal of Immunology, vol. 98, p. 893, 1971) and of Eisen (Journal of Amer. Chem. Soc., vol. 85, p 4593, 1953) and 1×10^10pertussis vaccine are administered to each paw of Wister strain rats (180 to 200 grams body weights) by dividing the dose by four. Five days later, 0.5 mg of DNP-As is administered into muscle of back. Eight days later from the initial immunization, blood is taken from descending aorta under anesthetizing with ether, the resulting serum is stored at -80° and is melted before use.
(ii) Effect of tested compounds is investigated as follows:
Anti-serum obtained by the method (i) is diluted with physiological saline solution double by double successively and 0.05 ml of each diluted solution is administered into back of Wister strain rats (140 to 160 grams body weight) subcutaneously. After 72 hours, a solution of 2 mg (calculated as protein) of DNP-As and 2.5 mg of Evans Blue dissolved in 1 ml of physiological saline solution is administered intraveously at a dose of 5 ml/kg. After 30 minutes from antigen solution administration, the animals are killed and diameters of blue spots appeared at the place where antiserum is administered are measured. The PCA test is conducted by the same method as already described using a diluted solutions of antiserum which always show 10 mm or more of spot diameters and the effect of the test compounds is judged. Thus antiserum diluted solutions are administered to two places in back. Test compounds are administered orally at the dose of 10 mg/kg one hour before administration of antigen solution. From the skin of reacted parts of killed animals, leaked or emitted dyestuff is extracted and the amount of the dyestuff is measured. The inhibition ratio is calculated by the following expression:
Inhibition Ratio=(1-A'/A)×100
in which A' is an amount of dyestuff in the group treated with the test compounds and A is that in the control group.

[3] = tested on: male mice; assay: Acute oral toxicity in mice (lethal ratio); format: in vivo; settings: 400 mg/kg oral, two weeks, four mice per group
Description: Acute toxicity was determined two weeks after oral administration of 400 mg/kg to male mice. Four mice (denominator) are used in each group and the dead numbers are given as the numerator. The compounds of the present invention show little, if any, toxicity.
Lethal ratios for all other compounds are 0/4 at doses of […]. It is therefore apparent that they are all safe compounds.

[4] = tested on: carrageenin edema in SD-strain rats; assay: Carrageenin edema at hind foot of rats (anti-inflammatory action); format: in vivo, rat; settings: Rattus norvegicus, po, 3 h, 200 mg/kg per os one hour before carrageenin; 3 hours after; read-out: % Inhibition of carrageenin edema
Description: The anti-inflammatory action of the compounds of the present invention were evaluated by measuring the inhibition against carrageein edema as set forth below.
Carrageenin edema at hind foot of rats:
SD-strain rats of body weights of around 150 grams were used, each group consisting of five rats. A solution (0.1 ml) of 0.5% carrageenin dissolved in physiological saline water was hypodermically injected into right hind foot pat of the rats and, one hour prior to the injection of carrageenin, 200 mg/kg of test compound was given per os. Foot volumes of the rats before the carrageenin treatment and those of three hours after the treatment were measured and the differences were compared with those of the control group to determine the effect of the compounds.

[5] = tested on: allergic asthma; settings: cited from earlier work
[6] = 10^-6 M; guinea pig ileus, SRS-A 20 units; 5 min, 1 µM
[7] = 10^-7 M; guinea pig ileus, SRS-A 20 units; 5 min, 0.1 µM

SMILES | SRS-A Inhibition Ratio % [1, 6] | inhibition in vivo at 10 mg/kg [2] | Lethal Ratio (dead/treated) [3] | inhibition in vivo at 200 mg/kg [4] | SRS-A Inhibition Ratio % ([1]; 10^-6 M, guinea pig ileus, SRS-A 20 units, 5 min, 1 µM) | SRS-A Inhibition Ratio % (value in parentheses) [1, 7] | PCA Inhibition Ratio % ([2]; rat, 10 mg/kg) | duration of action (in words) ([5]; in vivo) | effect on allergic asthma (in words) ([5]; in vivo) | effect on oral administration (in words) ([5]; oral administration)
O=C(c1ccccc1)c1c(O)c2cccc(C(=O)O)c2[nH]c1=O [Example 16, 3-benzoyl-4-hydroxy-2-quinolone-8-carboxylic acid] | 22.4% | 30.9% | 0/4 | – | – | – | – | – | – | –
Cc1cccc2c(O)c(C(=O)c3ccccc3)c(=O)[nH]c12 [Example 19, 3-benzoyl-4-hydroxy-8-methyl-2-quinolone] | 19.0% | 29.6% | 0/4 | 70% | – | – | – | – | – | –
CCCCCCc1ccc2[nH]c(=O)c(C(=O)c3ccccc3)c(O)c2c1 [Example 23, 3-benzoyl-6-n-hexyl-4-hydroxy-2-quinolone] | – | – | 0/4 | 15.9% | 83.3% | 32.8% | 13.1% | – | – | –
COc1ccc(C(=O)c2c(O)c3ccccc3[nH]c2=O)c(OC)c1OC [Example 32, 4-hydroxy-3-(2,3,4-trimethoxybenzoyl)-2-quinolone] | 100% | 16.3% | 0/4 | – | – | 83.3% | – | – | – | –
O=C(c1ccccc1Cl)c1c(O)c2ccccc2[nH]c1=O [Example 35, 3-(2-chlorobenzoyl)-4-hydroxy-2-quinolone] | 32.6% | 45.6% | 0/4 | – | – | – | – | – | – | –
O=C(c1ccc([N+](=O)[O-])cc1)c1c(O)c2ccccc2[nH]c1=O [Example 47, 4-hydroxy-3-(4-nitrobenzoyl)-2-quinolone] | 22.0% | 49.4% | 0/4 | – | – | – | – | – | – | –
O=C(O)c1cc(=O)c2c(OCC(O)COc3cccc4oc(C(=O)O)cc(=O)c34)cccc2o1 [Sodium chromoglicate] | – | – | – | – | – | – | – | rather short | effective for allergic asthma | does not show any effect on oral administration
